Data: patent US20060057153A1, “Method and composition for the inhibition of mitosis” (priority 2002, published 2006)

How the values were obtained:
S. pombe bir1-46 (Sp287) = experiment: Growth of bir1-46 on YES plates with thiabendazole; assay type: cell-based; conditions: 10 μg/ml TBZ, permissive temperature (28° C.), 3 days
Procedure: Briefly, to identify the phenotypes of the temperature sensitive allele, bir1-46, Wild-type and bir1-46 (Sp287) were streaked out on YES plates or 10 μg/ml of thiabendazole (TBZ), followed by incubation at either 28° C. or 32° C. for 3 days. Wild-type, bir1-46, and a rad3Δ were grown in YES medium to mid log phase (O.D.595=0.5-0.6) and then plated on YES plates followed by UV irradiation. Plates were cultured at 28° C. with a foil cover for 1 day and without a foil cover for subsequent 4 days. Colony numbers were calculated and survival rates were determined based on control plates, which were not irradiated. bir1-46 was transformed with vector alone (pUR19), pUR19-bir1^+, pUR19-Bsh3^+, or pUR19-pic1^+. Transformants were streaked out on YES plates followed by incubation at either 28° C. or 34° C. for 3 days. To conduct the high-copy suppressor screen, Sp287 (bir-46) was transformed with either a cDNA or genomic DNA library. Transformants were incubated at 28° C. for 20 hr followed by further incubation at 34° C. for five days.
Given that bir1^+ is required for chromosome segregation and cytokinesis, it is plausible that bir1^+ is also involved in mitotic spindle integrity.

HeLa cells = experiment: siRNA depletion in thymidine-synchronized HeLa cells, immunofluorescence staining of metaphase cells, with or without Vinblastine; assay type: cell-based, human; conditions: Buffer-transfected cells
Procedure: To further analyze the mitotic defects apparent in Bsh3-depleted cells, siRNA depletion was performed using thymidine-synchronized cells. Briefly, HeLa cells were blocked by thymidine 40 hr after siRNA transfection. After 20 hr of thymidine treatment, cells were washed and cultured in thymidine free media for 14 hr, followed by immunofluorescence staining analysis using the anti-centromere antibody, ANA-C (Sigma). Chromosomes and mitotic spindles were localized by Hoechst and anti-α-tubulin staining, respectively. […] To distinguish these two possibilities, siRNA depletion and video-microscopy were performed using a HeLa cell line expressing the histone H2B-GFP fusion protein. While the wild-type cells were able to congress and segregate their chromosomes in 45-60 min, siRNA treated cells (30%) took more than 2 hr for the same process due to the fact that some chromosomes were delayed in alignment at the metaphase plate. […] However, only 0.34% of buffer-treated cells remained in metaphase (Table 1).
To confirm this interpretation, it was analyzed whether human Bsh3 depleted cells were more sensitive to Vinblastine (VBL), a microtubule-disrupting drug. It has been shown that a low concentration of VBL (nM) alters microtubule dynamics without depolymerizing microtubules. As a result, it affects chromosome movement during metaphase and delays chromosome congression. In addition Vinblastine disrupts kinetochore tension without affecting spindle-kinetochore attachment.
siRNA depletion using thymidine-synchronized cells, which were released into culture media with different concentrations of VBL for 14 hr, was followed by immunofluorescence staining as described in the previous section.

[1] = system: HL-60, a promylocytic cell line; experiment: Bsh3 expression in HL-60 cells after treatment; assay type: cell-based; conditions: HL60 cells treated with the agent
Source text: In addition to being a marker of tumor aggressiveness and treatment potential, Bsh3 expression can be used as a measurement of the effectiveness of anti-tumor therapy. In the Examples, it is shown that HL-60, a promylocytic cell line, had high levels of Bsh3 expression. […] The reduction in expression correlated with the degree of differentiation, the greater the differentiation, the lower the level of Bsh3 expression. Accordingly, Bsh3 expression can be used to measure the effectiveness of anti-tumor treatment: if Bsh3 expression decreases during treatment, the treatment protocol is effective and can be continued, whereas if Bsh3 expression remains unaltered, a different therapeutic regime or protocol needs to be performed.

## c1ccc2[nH]c(-c3cscn3)nc2c1 [TBZ, Thiabendazole]
S. pombe bir1-46 (Sp287)
  growth of bir1-46: failed to grow

## CC[C@]1(O)C[C@@H]2CN(CCc3c([nH]c4ccccc34)[C@@](C(=O)OC)(c3cc4c(cc3OC)N(C)[C@H]3[C@@](O)(C(=O)OC)[C@H](OC(C)=O)[C@]5(CC)C=CCN6CC[C@]43[C@@H]65)C2)C1 [VBL, Vinblastine]
HeLa cells; VBL 0.1 nM for 14 hr
  % of cells in metaphase: 1.5%
HeLa cells; VBL 0.5 nM for 14 hr
  % of cells in metaphase: 1.7%
HeLa cells; VBL 1 nM for 14 hr
  % of cells in metaphase: 13.6%

## CC1=C(/C=C/C(C)=C/C=C/C(C)=C/C(=O)O)C(C)(C)CCC1 [retenoic acid]
[1]
  Bsh3 expression: reduction and elimination of Bsh3 expression
